ChEMBL document CHEMBL4507310, “Data for DCP probe A-1211212” (2021)

How the values were obtained:
Bcl-2-like protein 1 = Bcl-2-like protein 1 (Homo sapiens, UniProt Q07817); test: Time-resolved fluorescence energy transfer (TR-FRET) with BCL2L1
[1] = biological target: Ephrin type-A receptor 1 (Homo sapiens) (UniProt P21709); settings: Compound concentration 1000.0 nM
[2] = biological target: Histamine H1 receptor (Homo sapiens) (UniProt P35367); settings: Compound concentration 10.0 uM
[3] = biological target: Sigma non-opioid intracellular receptor 1 (Homo sapiens) (UniProt Q99720); test: sigma (non-selective) (h) Eurofins-Cerep binding assay; parameters: ligand concentration 10 nM; settings: filed as agonist, Compound concentration 10.0 uM
Sequence of Sigma non-opioid intracellular receptor 1 (Homo sapiens) (Q99720 whole entry): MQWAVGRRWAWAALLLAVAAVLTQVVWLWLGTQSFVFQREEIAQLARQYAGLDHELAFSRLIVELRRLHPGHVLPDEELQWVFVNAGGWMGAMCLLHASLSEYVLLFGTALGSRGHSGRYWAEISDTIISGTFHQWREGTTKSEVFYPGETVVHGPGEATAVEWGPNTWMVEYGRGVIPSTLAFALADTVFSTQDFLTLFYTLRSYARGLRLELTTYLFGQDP

[4] = biological target: 5-hydroxytryptamine receptor 1E (Homo sapiens) (UniProt P28566); settings: Compound concentration 10.0 uM
[5] = biological target: Myotonin-protein kinase (Homo sapiens) (UniProt Q09013); settings: Compound concentration 1000.0 nM
[6] = biological target: Cyclin-dependent kinase 18 (Homo sapiens) (UniProt Q07002); settings: Compound concentration 1000.0 nM
[7] = biological target: Aurora kinase C (Homo sapiens) (UniProt Q9UQB9); settings: Compound concentration 1000.0 nM
[8] = biological target: Cyclin-dependent kinase-like 5 (Homo sapiens) (UniProt O76039); settings: Compound concentration 1000.0 nM
[9] = biological target: Ribosomal protein S6 kinase alpha-3 (Homo sapiens) (UniProt P51812); settings: Compound concentration 1000.0 nM
Sequence of Ribosomal protein S6 kinase alpha-3 (Homo sapiens) (P51812 whole entry): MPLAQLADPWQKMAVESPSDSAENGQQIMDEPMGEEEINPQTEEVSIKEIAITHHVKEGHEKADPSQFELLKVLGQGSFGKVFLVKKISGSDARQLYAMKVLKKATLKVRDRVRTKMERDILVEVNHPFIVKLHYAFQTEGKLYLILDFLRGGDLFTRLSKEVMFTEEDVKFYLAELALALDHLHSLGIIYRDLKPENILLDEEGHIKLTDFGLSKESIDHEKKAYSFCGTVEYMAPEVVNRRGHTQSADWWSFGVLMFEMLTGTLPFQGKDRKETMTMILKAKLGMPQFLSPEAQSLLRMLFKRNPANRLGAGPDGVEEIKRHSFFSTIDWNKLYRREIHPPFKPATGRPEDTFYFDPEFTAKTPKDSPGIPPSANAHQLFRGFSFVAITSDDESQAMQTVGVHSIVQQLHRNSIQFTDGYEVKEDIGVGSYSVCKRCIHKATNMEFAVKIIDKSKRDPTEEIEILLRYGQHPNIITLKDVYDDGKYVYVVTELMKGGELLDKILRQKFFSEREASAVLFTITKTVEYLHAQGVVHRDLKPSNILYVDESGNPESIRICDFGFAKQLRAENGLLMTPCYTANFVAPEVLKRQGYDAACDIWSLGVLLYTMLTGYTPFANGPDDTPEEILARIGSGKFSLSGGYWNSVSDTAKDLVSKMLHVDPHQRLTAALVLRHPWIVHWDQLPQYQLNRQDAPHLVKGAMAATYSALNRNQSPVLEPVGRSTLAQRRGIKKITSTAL

[10] = biological target: Non-receptor tyrosine-protein kinase TYK2 (Homo sapiens) (UniProt P29597); settings: Compound concentration 1000.0 nM
[11] = biological target: T1, Muscarinic acetylcholine receptor M2 (Homo sapiens) (UniProt P08172); settings: Compound concentration 10.0 uM
T1 sequence (whole entry): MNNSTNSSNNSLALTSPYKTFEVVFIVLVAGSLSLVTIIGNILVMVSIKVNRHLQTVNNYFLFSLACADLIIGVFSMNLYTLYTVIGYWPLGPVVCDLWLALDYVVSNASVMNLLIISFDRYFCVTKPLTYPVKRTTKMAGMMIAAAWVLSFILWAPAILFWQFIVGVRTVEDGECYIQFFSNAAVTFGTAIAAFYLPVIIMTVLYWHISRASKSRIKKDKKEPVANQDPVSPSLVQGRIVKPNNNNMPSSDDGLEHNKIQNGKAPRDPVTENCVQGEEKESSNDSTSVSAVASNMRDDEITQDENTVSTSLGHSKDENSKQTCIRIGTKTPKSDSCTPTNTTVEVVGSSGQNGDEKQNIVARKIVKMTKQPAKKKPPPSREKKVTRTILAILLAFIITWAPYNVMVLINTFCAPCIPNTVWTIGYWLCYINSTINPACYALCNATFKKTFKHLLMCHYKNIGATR

[12] = biological target: Serine/threonine-protein kinase ULK1 (Homo sapiens) (UniProt O75385); settings: Compound concentration 1000.0 nM
[13] = biological target: B2 bradykinin receptor (Homo sapiens) (UniProt P30411); test: B2 (h) Eurofins-Cerep binding assay; parameters: ligand concentration 0.3 nM; settings: filed as agonist, Compound concentration 10.0 uM
[14] = tested on: Epidermal growth factor receptor (Homo sapiens), P00533 [UNDEFINED MUTATION]; settings: Compound concentration 1000.0 nM
[15] = biological target: GABA-A receptor; anion channel (Rattus norvegicus) (UniProt O09028+P15431+P18506+P18508+P19969+P20236+P23574+P23576+P28471+P28473+P30191+P62813+P63079+P63138+Q91ZM7+Q9ES14); settings: Compound concentration 10.0 uM
[16] = biological target: Serine/threonine-protein kinase PAK 1 (Homo sapiens) (UniProt Q13153); settings: Compound concentration 1000.0 nM
Sequence of Serine/threonine-protein kinase PAK 1 (Homo sapiens) (Q13153 whole entry): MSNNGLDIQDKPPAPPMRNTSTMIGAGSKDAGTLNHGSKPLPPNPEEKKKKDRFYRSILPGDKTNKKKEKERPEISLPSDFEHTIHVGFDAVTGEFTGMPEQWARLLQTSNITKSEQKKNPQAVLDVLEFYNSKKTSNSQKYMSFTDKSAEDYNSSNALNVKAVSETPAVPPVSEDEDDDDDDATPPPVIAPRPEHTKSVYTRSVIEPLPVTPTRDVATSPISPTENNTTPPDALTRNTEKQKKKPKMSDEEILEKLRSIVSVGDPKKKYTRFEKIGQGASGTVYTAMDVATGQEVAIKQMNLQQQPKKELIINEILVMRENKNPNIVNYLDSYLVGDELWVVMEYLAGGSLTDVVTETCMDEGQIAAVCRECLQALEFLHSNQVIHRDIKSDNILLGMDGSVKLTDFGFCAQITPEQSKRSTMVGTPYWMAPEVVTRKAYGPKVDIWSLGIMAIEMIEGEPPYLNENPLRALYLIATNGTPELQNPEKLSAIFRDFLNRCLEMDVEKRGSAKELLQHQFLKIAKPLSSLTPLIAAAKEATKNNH

[17] = tested on: Tyrosine-protein kinase ABL1 (Homo sapiens), P00519 [F317L]; settings: Compound concentration 1000.0 nM
[18] = biological target: Neuropeptide Y receptor type 1 (Homo sapiens) (UniProt P25929); test: Y1 (h) Eurofins-Cerep binding assay; parameters: ligand concentration 0.025 nM; settings: filed as agonist, Compound concentration 10.0 uM
Sequence of Neuropeptide Y receptor type 1 (Homo sapiens) (P25929 whole entry): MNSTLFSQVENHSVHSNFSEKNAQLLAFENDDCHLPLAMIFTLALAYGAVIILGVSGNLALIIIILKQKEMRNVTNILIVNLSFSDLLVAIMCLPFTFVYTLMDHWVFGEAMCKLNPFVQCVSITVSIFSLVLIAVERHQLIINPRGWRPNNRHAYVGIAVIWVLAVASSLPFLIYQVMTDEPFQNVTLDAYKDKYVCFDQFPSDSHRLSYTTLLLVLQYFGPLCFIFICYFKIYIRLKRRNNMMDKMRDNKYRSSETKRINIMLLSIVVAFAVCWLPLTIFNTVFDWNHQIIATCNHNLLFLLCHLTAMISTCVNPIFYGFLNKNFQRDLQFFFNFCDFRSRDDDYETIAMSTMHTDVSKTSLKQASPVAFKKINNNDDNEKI

[19] = biological target: Serine/threonine-protein kinase BRSK2 (Homo sapiens) (UniProt Q8IWQ3); settings: Compound concentration 1000.0 nM
[20] = biological target: Receptor-interacting serine/threonine-protein kinase 4 (Homo sapiens) (UniProt P57078); settings: Compound concentration 1000.0 nM
[21] = biological target: Insulin receptor-related protein (Homo sapiens) (UniProt P14616); settings: Compound concentration 1000.0 nM
Sequence of Insulin receptor-related protein (Homo sapiens) (P14616 27-742 limits assumed): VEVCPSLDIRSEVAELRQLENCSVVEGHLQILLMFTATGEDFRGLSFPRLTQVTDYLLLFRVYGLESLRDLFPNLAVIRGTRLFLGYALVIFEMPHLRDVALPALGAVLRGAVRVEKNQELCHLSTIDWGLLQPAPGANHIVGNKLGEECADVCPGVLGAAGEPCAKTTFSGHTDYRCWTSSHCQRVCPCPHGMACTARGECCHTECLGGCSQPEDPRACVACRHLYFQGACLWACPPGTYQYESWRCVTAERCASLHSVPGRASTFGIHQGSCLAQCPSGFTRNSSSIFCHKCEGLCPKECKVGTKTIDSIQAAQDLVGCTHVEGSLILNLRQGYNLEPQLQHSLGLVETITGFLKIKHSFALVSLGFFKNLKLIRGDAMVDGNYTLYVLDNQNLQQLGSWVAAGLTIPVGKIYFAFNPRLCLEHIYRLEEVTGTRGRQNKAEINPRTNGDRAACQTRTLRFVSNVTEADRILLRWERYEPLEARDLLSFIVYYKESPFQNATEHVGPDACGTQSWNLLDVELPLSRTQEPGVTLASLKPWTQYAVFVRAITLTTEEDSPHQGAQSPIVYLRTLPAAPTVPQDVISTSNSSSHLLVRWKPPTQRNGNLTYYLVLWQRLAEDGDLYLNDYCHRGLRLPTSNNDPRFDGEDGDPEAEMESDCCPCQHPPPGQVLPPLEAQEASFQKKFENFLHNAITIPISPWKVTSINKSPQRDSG
Sequence of Insulin receptor-related protein (Homo sapiens) (P14616 747-1297 limits assumed): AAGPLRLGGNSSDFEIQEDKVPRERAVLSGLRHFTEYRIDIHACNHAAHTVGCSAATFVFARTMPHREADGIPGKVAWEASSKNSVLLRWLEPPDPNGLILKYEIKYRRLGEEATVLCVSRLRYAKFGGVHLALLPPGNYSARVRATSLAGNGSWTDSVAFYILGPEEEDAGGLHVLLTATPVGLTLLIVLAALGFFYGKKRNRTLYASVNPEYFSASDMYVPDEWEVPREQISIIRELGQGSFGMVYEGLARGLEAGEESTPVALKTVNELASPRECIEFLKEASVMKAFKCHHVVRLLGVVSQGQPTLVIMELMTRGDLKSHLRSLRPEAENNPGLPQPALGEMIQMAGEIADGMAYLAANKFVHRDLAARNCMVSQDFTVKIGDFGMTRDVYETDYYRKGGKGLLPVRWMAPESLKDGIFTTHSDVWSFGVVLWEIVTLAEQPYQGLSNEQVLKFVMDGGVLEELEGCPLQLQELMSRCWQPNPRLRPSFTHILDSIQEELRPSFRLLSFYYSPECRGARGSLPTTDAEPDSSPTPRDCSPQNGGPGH

[22] = biological target: Cytoplasmic tyrosine-protein kinase BMX (Homo sapiens) (UniProt P51813); settings: Compound concentration 1000.0 nM
Na+ channel (site 2) = Na+ channel (site 2) (Rattus norvegicus, UniProt F1LQQ7+O08562+O88420+O88457+P04774+P04775+P08104+P15389+P15390+Q62968); test: Na+ channel (site 2) Eurofins-Cerep binding assay; format: protein assay; parameters: incubation time 60 min, incubation temperature 37°C, ligand concentration 10 nM; settings: rat cerebral cortex, probe [3H]batrachotoxin (10 nM), compound concentration 10 uM, read-out: % Inhibition of Control Specific Binding (Mean n=2)
[23] = biological target: Alpha-2C adrenergic receptor (Homo sapiens) (UniProt P18825); settings: Compound concentration 10.0 uM
Sequence of Alpha-2C adrenergic receptor (Homo sapiens) (P18825 whole entry): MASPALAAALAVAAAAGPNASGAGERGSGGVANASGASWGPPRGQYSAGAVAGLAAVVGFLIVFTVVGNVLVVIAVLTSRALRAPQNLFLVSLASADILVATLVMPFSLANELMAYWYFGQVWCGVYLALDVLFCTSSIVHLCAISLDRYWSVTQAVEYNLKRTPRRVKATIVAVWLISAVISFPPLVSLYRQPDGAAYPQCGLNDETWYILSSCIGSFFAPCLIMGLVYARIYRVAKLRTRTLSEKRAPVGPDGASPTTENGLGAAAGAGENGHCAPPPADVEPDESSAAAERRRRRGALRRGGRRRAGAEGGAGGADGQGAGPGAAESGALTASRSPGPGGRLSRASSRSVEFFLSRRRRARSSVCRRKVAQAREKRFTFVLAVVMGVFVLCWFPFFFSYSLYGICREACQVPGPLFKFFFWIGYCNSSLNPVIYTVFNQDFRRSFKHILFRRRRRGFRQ

[24] = biological target: 5-hydroxytryptamine receptor 4 (Homo sapiens) (UniProt Q13639); test: 5-HT4 e (h) Eurofins-Cerep binding assay; parameters: ligand concentration 0.3 nM; settings: filed as antagonist, Compound concentration 10.0 uM
Sequence of 5-hydroxytryptamine receptor 4 (Homo sapiens) (Q13639 whole entry): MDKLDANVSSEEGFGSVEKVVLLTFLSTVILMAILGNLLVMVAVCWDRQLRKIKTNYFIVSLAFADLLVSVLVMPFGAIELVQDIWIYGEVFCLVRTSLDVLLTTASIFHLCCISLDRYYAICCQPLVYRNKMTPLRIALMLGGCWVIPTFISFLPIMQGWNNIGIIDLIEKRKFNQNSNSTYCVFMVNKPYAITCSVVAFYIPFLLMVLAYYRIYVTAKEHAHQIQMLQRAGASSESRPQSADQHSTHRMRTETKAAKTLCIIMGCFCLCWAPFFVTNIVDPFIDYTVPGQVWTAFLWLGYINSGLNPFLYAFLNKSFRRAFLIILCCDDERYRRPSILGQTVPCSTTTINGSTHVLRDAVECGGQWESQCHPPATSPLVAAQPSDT

[25] = biological target: Tyrosine-protein kinase Yes (Homo sapiens) (UniProt P07947); settings: Compound concentration 1000.0 nM
[26] = biological target: ALK tyrosine kinase receptor (Homo sapiens) (UniProt Q9UM73); settings: Compound concentration 1000.0 nM
[27] = biological target: Serine/threonine-protein kinase RIO2 (Homo sapiens) (UniProt Q9BVS4); settings: Compound concentration 1000.0 nM
[28] = biological target: Ribosomal protein S6 kinase alpha-1 (Homo sapiens) (UniProt Q15418); settings: Compound concentration 1000.0 nM
[29] = biological target: MAO-A (amine oxidase [flavin-containing] A) (Rattus norvegicus, UniProt P21396); test: MAO-A Eurofins-Cerep binding assay; parameters: incubation time 60 min, incubation temperature 37°C, ligand concentration 10 nM; settings: rat cerebral cortex, probe [3H]Ro 41-1049 (10 nM), compound concentration 10 uM, read-out: % Inhibition of Control Specific Binding (Mean n=2)
[30] = biological target: GABA-A receptor; alpha-1/beta-2/gamma-2 (Homo sapiens) (UniProt P14867+P47870+P18507); test: GABAA1 (h) (alpha1,beta2,gamma2) Eurofins-Cerep binding assay; format: protein-complex assay; parameters: ligand concentration 15 nM; settings: filed as agonist, Compound concentration 10.0 uM
[31] = biological target: Mitogen-activated protein kinase kinase kinase kinase 4 (Homo sapiens) (UniProt O95819); settings: Compound concentration 1000.0 nM
[32] = biological target: Ribosomal protein S6 kinase alpha-4 (Homo sapiens) (UniProt O75676); settings: Compound concentration 1000.0 nM
[33] = biological target: D(1A) dopamine receptor (Homo sapiens) (UniProt P21728); test: D1 (h) Eurofins-Cerep binding assay; parameters: ligand concentration 0.3 nM; settings: filed as antagonist, Compound concentration 10.0 uM

Sequence of Bcl-2-like protein 1 (Q07817 whole entry): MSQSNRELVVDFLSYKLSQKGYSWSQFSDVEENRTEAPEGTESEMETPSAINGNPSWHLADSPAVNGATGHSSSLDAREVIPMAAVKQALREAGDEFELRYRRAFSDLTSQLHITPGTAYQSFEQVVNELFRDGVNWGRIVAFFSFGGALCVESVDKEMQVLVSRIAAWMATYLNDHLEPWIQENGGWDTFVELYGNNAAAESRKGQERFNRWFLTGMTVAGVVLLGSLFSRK
Sequence of Histamine H1 receptor (Homo sapiens) (P35367 whole entry): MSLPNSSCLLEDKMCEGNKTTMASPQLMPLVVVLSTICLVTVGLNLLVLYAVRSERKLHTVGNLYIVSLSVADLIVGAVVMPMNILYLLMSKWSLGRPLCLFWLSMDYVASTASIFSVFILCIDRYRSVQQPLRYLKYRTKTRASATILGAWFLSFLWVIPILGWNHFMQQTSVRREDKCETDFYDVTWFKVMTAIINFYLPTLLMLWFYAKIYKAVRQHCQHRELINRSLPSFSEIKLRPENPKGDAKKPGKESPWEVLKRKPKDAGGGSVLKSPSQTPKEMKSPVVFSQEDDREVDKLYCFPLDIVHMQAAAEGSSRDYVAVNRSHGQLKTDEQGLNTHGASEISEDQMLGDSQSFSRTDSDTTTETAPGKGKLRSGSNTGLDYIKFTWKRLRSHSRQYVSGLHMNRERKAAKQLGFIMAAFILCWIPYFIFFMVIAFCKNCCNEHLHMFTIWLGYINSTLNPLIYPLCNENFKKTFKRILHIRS

SMILES: O=C(NS(=O)(=O)c1ccc(NCC2CCOCC2)c([N+](=O)[O-])c1)c1ccc(N2CCN(Cc3ccc(C(F)(F)F)cc3-c3ccc(Cl)cc3)CC2)cc1Oc1cnc2[nH]ccc2c1 [A-1210227]
- IC50 (Bcl-2-like protein 1): > 25 µM (not active)
- residual activity [1]: 98%
- inhibition [2]: -9.16%
- % Inhibition of Control Specific Binding (Mean n=2) [3]: -104%
- inhibition [4]: 10.4%
- residual activity [5]: 100%
- residual activity [6]: 100%
- residual activity [7]: 97%
- residual activity [8]: 74%
- residual activity [9]: 100%
- residual activity [10]: 84%
- inhibition [11]: 1.6%
- residual activity [12]: 96%
- % Inhibition of Control Specific Binding (Mean n=2) [13]: -2.1%
- residual activity [14]: 88%
- inhibition [15]: 17.9%
- residual activity [16]: 100%
- residual activity [17]: 91%
- % Inhibition of Control Specific Binding (Mean n=2) [18]: 3.1%
- residual activity [19]: 87%
- residual activity [20]: 75%
- residual activity [21]: 98%
- residual activity [22]: 100%
- inhibition at 60 min, 10 µM (Na+ channel (site 2)): -8.2%
- inhibition [23]: 12.7%
- % Inhibition of Control Specific Binding (Mean n=2) [24]: -2%
- residual activity [25]: 100%
- residual activity [26]: 94%
- residual activity [27]: 90%
- residual activity [28]: 100%
- inhibition at 60 min, 10 µM [29]: 8.7%
- % Inhibition of Control Specific Binding (Mean n=2) [30]: -0.7%
- residual activity [31]: 95%
- residual activity [32]: 89%
- % Inhibition of Control Specific Binding (Mean n=2) [33]: 6.4%

SMILES: CO[C@H]1CC[C@H](CNc2ccc(S(=O)(=O)NC(=O)c3ccc(N4CCN(CC5=C(c6ccc(Cl)cc6)CC(C)(C)CC5)CC4)cc3Oc3cnc4[nH]ccc4c3)cc2[N+](=O)[O-])CC1 [A-1211212]
- IC50 (Bcl-2-like protein 1): 0.753 µM (not active)
- residual activity [1]: 100%
- inhibition [2]: 34.2%
- % Inhibition of Control Specific Binding (Mean n=2) [3]: 22.4%
- inhibition [4]: -1.62%
- residual activity [5]: 91%
- residual activity [6]: 100%
- residual activity [7]: 87%
- residual activity [8]: 74%
- residual activity [9]: 100%
- residual activity [10]: 98%
- inhibition [11]: -2.68%
- residual activity [12]: 82%
- % Inhibition of Control Specific Binding (Mean n=2) [13]: -15.7%
- residual activity [14]: 65%
- inhibition [15]: 23.6%
- residual activity [16]: 78%
- residual activity [17]: 100%
- % Inhibition of Control Specific Binding (Mean n=2) [18]: 5.9%
- residual activity [19]: 78%
- residual activity [20]: 65%
- residual activity [21]: 100%
- residual activity [22]: 95%
- inhibition at 60 min, 10 µM (Na+ channel (site 2)): -2.3%
- inhibition [23]: 15.6%
- % Inhibition of Control Specific Binding (Mean n=2) [24]: -1%
- residual activity [25]: 88%
- residual activity [26]: 100%
- residual activity [27]: 89%
- residual activity [28]: 73%
- inhibition at 60 min, 10 µM [29]: -5.9%
- % Inhibition of Control Specific Binding (Mean n=2) [30]: -12.2%
- residual activity [31]: 100%
- residual activity [32]: 90%
- % Inhibition of Control Specific Binding (Mean n=2) [33]: 0.7%
